The nature of data set [1]: Solubility (Test F). The following applies: arithmetic mean if run multiple times. The format is physicochemical. As to the method: The assay was conducted according to the Solubility Assay described in pages 164-167 of Wernevik, J. et al., “A Fully Integrated Assay Panel for Early Drug Metabolism and Pharmacokinetics Profiling”, Assay and Drug Development Technologies, 2020, 18(4), 157-179. Data are reported in Table 36 as solubility ([…]. Where the assay was run multiple times for the same compound, the arithmetic mean is reported.

A short description of data set [2]: Human Hepatocyte Stability (Test D). Format: in vitro ADME. The following applies: human, cryopreserved pooled human hepatocytes (LiverPool 10-Donor), geometric mean if run multiple times. The procedure, abridged:
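Intrinsic clearance (μL/min/10^6 cells), derived as kV/N from the log-linear loss of parent compound. Compound incubated at 37 °C with cryopreserved pooled human hepatocytes, 0.25×10^6 cells in 0.25 mL L-15; dosing solution 100 μM in acetonitrile. Singlicate incubations, cassette LC-MS; repeats reported as geometric mean.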

Data set [3] has as its target T1, human RXFP1 (Homo sapiens, UniProt Q9HBX9).
T1 sequence (Q9HBX9 1-757): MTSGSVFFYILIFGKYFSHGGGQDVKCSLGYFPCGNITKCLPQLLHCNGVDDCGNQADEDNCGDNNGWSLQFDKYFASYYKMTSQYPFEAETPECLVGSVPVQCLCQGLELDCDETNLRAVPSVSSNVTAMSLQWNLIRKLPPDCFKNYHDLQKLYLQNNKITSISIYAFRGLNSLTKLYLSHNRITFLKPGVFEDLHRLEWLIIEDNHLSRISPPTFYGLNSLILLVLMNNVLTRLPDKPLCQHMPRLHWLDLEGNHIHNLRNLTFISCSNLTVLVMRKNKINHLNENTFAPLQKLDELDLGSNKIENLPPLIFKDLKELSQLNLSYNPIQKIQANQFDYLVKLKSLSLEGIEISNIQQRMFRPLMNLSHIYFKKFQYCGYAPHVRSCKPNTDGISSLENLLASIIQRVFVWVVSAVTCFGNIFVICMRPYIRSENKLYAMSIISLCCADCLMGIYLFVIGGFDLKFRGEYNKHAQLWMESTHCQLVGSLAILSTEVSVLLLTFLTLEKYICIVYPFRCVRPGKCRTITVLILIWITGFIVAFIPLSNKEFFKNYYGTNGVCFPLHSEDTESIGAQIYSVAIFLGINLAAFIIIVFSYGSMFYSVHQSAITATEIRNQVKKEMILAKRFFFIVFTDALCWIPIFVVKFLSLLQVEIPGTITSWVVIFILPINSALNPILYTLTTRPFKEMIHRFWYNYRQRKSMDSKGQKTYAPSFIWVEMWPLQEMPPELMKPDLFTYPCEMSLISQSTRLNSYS
Nature of the data set: RXFP1 Hu cAMP (Test A). Format: cell-based. The arrangement: expressed in transfected cells; host or cells: Jump-In T-REx CHO-K1 cells (ThermoFisher), induced with 10 ng/ml doxycycline for 24 h. The following applies: RXFP1 Hu cAMP; for EC50: read-out: Test A EC50. The procedure, abridged:
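CHO-K1 (Jump-In T-REx), RXFP1 induced w/ 10 ng/ml doxycycline 24 h, cryopreserved. 0.5 mM IBMX final. cAMP by HTRF, 2 h RT, std curve.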

Data set [4] can be described thus: Rat Hepatocyte Stability (Test E). The format is in vitro ADME. The following applies: rat, hepatocytes, geometric mean if run multiple times. In a few lines: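 Intrinsic clearance in rat hepatocytes, expressed as μl/min/10^6 cells, following the literature integrated DMPK panel method. Repeat determinations combined as geometric mean.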
Data set [5] can be described thus: Human Liver Microsomal Stability (Test C). Format: in vitro ADME. The following applies: human, liver microsomes. In a few lines:
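CLint (μl/min/mg protein) derived from compound depletion in human liver microsomes following a published standardized early-DMPK protocol; replicate determinations given as arithmetic mean.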

A short description of data set [6]: Human Plasma Protein Binding (Test B). Format: in vitro ADME. The following applies: fraction unbound (fu). In a few lines:
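Values given as % free (fu) in human plasma, using the method of Wernevik et al. (2020). For compounds tested more than once, the arithmetic mean is given.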

≈ marks a conversion by molar mass, not a printed value. A value given as a limit tells only on which side of the number the result lay.

Consider five compounds from patent publication US11667602B2, “Compounds and their use” (AstraZeneca AB, priority 2020, dated 2023).

With `COc1cc(C#N)c(O[C@H]2CC[C@@](C)(C(=O)O)CC2)cc1C(=O)N[C@@H]1[C@H]2CC[C@H](C2)[C@@H]1C(=O)NCC(F)(F)C(F)(F)F` [Example 102], in data set [1], the solubility came out at 820 µM (≈ 493 µg/mL). Besides, the hepatocyte CLint at 1 µM in data set [2] was 1.9 µL/min/1e6 cells. Also, in data set [3], the “Test A Sinf” value worked out at 122% and the EC50 is 160 nM. The compound further returned a hepatocyte CLint in data set [4] of 14 µL/min/1e6 cells. In data set [5], this compound returned a microsomal CLint of 4.4 µL/min/mg. Besides, in data set [6], the “Test B Human Plasma Protein Binding (% free)” value is 12 % free.
As to `COc1cc(C#N)c(O[C@H]2CC[C@@](C)(C(=O)O)CC2)cc1C(=O)N[C@@H]1[C@H]2CC[C@H](C2)[C@@H]1C(=O)NC12CC(C1)C2` [Example 141, (1S,4s)-4-(5-(((1S,2R,3S,4R)-3-(Bicyclo[1.1.1]pentan-1-ylcarbamoyl)-bicyclo[2.2.1]heptan-2-yl)carbamoyl)-2-cyano-4-methoxyphenoxy)-1-methylcyclohexane-1-carboxylic acid], in data set [1], the solubility came out at 920 µM (≈ 493 µg/mL). In data set [2], this compound had a hepatocyte CLint at 1 µM of less than 1 µL/min/1e6 cells. In addition, in data set [3], the “Test A Sinf” value worked out at 107% and the EC50 stood at 74 nM. In data set [4], this compound returned a hepatocyte CLint of 17 µL/min/1e6 cells. The microsomal CLint in data set [5] stood at 8.3 µL/min/mg. Besides, the “Test B Human Plasma Protein Binding (% free)” value in data set [6] was 16 % free.
In turn, `COc1cc(F)c(O[C@H]2CC[C@@](C)(C(=O)O)CC2)cc1C(=O)Nc1ccccc1C(=O)NCC(C)(C)C` [Example 142, (1s,4s)-4-(2-Fluoro-4-methoxy-5-((2-(neopentylcarbamoyl)phenyl)-carbamoyl)phenoxy)-1-methylcyclohexane-1-carboxylic acid] yielded a solubility in data set [1] of 6.5 µM (≈ 3.34 µg/mL). In data set [2], the hepatocyte CLint at 1 µM is 3.3 µL/min/1e6 cells. Moreover, in data set [3], the “Test A Sinf” value is recorded as 129% and the EC50 worked out at 320 nM. The compound further came in with a hepatocyte CLint in data set [4] of 9.8 µL/min/1e6 cells. The compound also gave a microsomal CLint in data set [5] of less than 3 µL/min/mg. Also, the “Test B Human Plasma Protein Binding (% free)” value in data set [6] was found to be 1.2 % free.
In data set [1], `COc1cc(F)c(O[C@H]2CC[C@@](C)(C(=O)O)CC2)cc1C(=O)Nc1ccccc1C(=O)NCC1(C)CCC1` [Example 143, (1s,4s)-4-(2-Fluoro-4-methoxy-5-((2-(((1-methylcyclobutyl)methyl)-carbamoyl)phenyl)carbamoyl)phenoxy)-1-methylcyclohexane-1-carboxylic acid] gave a solubility of 1.6 µM (≈ 0.843 µg/mL). For the same compound, in data set [2], the hepatocyte CLint at 1 µM worked out at 6.9 µL/min/1e6 cells. For the same compound, in data set [3], the “Test A Sinf” value was determined as 130%. This compound also returned a hepatocyte CLint in data set [4] of 24 µL/min/1e6 cells. For the same compound, the microsomal CLint in data set [5] was less than 3 µL/min/mg. For the same compound, the “Test B Human Plasma Protein Binding (% free)” value in data set [6] was determined as 0.68 % free.
Compound `COc1cc(F)c(O[C@H]2CC[C@@](C)(C(=O)O)CC2)cc1C(=O)N[C@@H]1[C@H]2CC[C@H](C2)[C@@H]1C(=O)NCC1(F)CCOCC1` [Example 146, (1S,4s)-4-(2-Fluoro-5-(((1S,2R,3S,4R)-3-(((4-fluorotetrahydro-2H-pyran-4-yl)methyl)carbamoyl)bicyclo[2.2.1]heptan-2-yl)carbamoyl)-4-methoxyphenoxy)-1-methylcyclohexane-1-carboxylic acid] registered a solubility in data set [1] of 1000 µM (≈ 579 µg/mL). The hepatocyte CLint at 1 µM in data set [2] was less than 1 µL/min/1e6 cells. In data set [3], the “Test A Sinf” value is recorded as 87% and the EC50 is more than 1900 nM. The same compound gave a hepatocyte CLint in data set [4] of 14 µL/min/1e6 cells. Moreover, the microsomal CLint in data set [5] was less than 3 µL/min/mg. The “Test B Human Plasma Protein Binding (% free)” value in data set [6] stood at 24 % free.
